Results taken from patent US20030134859A1 (SANKYO COMPANY, LIMITED, priority 2000, published 2003).
Counter-ions that a name gives are not always drawn.

tested on: Rat white adipocytes; experiment: Inhibition of the differentiation of adipocytes (Oil Red O); format: cell-based; conditions: 100 nM test compound; 5 days; Oil Red O ABS550; control = 100%, blank = 0%; Table 3
Method in brief: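 Rat white preadipocytes, 5,000 cells/well, given differentiation medium with compound at 100 nM final (0.1% DMSO) for 5 days at 37 °C. Lipid stained with Oil Red O, eluted in DMSO, read at 550 nm; differentiation % relative to DMSO control (100%) and blank (0%).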

| Compound | Rate of Differentiation (%) |
| --- | --- |
| O=C(Nc1cccc(C(=O)N2CCCC2)c1)c1cc([N+](=O)[O-])ccc1Cl [Example 31] | 77.2 |
| Cl.O=C(Nc1ccncc1)c1cc([N+](=O)[O-])ccc1Cl [Example 146, N-(Pyridin-4-yl)-(2-chloro-5-nitrophenyl)carboxamide Hydrochloride] | 78.2 |
| N-[4-(4-Methylbenzoylamino)phenyl]phenyl]-(2-chloro-5-nitrophenyl)carboxamide [Example 122] | 78.4 |
| N-[4-[4-(Pyrrolidin-1-ylamino)phenyl]phenyl]-(2-chloro-5-nitrophenyl)carboxamide [Example 171] | 43.0 |

same assay, conditions: 100 nM test compound; 5 days; Oil Red O ABS550; control = 100%, blank = 0%; Table 3; mono-hydrochloride

| Compound | Rate of Differentiation (%) |
| --- | --- |
| Nc1ccc(-c2ccc(NC(=O)c3cc([N+](=O)[O-])ccc3Cl)cc2)cc1 [Example 88, N-[4-(4-Aminophenyl)phenyl]-(2-chloro-5-nitrophenyl)carboxamide mono-hydrochloride] | 63.3 |

same assay, conditions: Rattus norvegicus, Adipocyte, 120 h, 100 nM test compound; 5 days; Oil Red O ABS550; control = 100%, blank = 0%; Table 3; read-out: Rate of Differentiation (%)

| Compound | activity at 0.1 µM [%] |
| --- | --- |
| N#Cc1cccc(NC(=O)c2cc([N+](=O)[O-])ccc2Cl)c1 [Example 21, N-(3-Cyanophenyl)-(2-chloro-5-nitrophenyl)carboxamide] | 63 |
| O=C(Nc1ccc([N+](=O)[O-])cc1)c1cc([N+](=O)[O-])ccc1Cl [Example 23, N-(4-Nitrophenyl)-(2-chloro-5-nitrophenyl)carboxamide] | 57.7 |
| O=C(Nc1ccc([N+](=O)[O-])cn1)c1cc([N+](=O)[O-])ccc1Cl [Example 24, N-(5-Nitropyridin-2-yl)-(2-chloro-5-nitrophenyl)carboxamide] | 59.1 |
| O=C(Nc1cccc([N+](=O)[O-])c1)c1cc([N+](=O)[O-])ccc1Cl [Example 25, N-(3-Nitrophenyl)-(2-chloro-5-nitrophenyl)carboxamide] | 84 |
| O=C(Nc1ccncc1)c1cc([N+](=O)[O-])ccc1Cl [Example 49, N-(4-Pyridyl)-(2-chloro-5-nitrophenyl)carboxamide] | 71 |
| O=C(Nc1ccc(Cl)nc1)c1cc([N+](=O)[O-])ccc1Cl [Example 62, N-(6-Chloropyridin-3-yl)-(2-chloro-5-nitrophenyl)carboxamide] | 68.5 |
| O=C(Nc1ccc(NC(=O)c2cc([N+](=O)[O-])ccc2Cl)nc1)c1cc([N+](=O)[O-])ccc1Cl [Example 64, 2,5-bis(2-Chloro-5-nitrobenzoylamino)pyridine] | 85.5 |
| O=C(Nc1nc2cc(Cl)ccc2o1)c1cc([N+](=O)[O-])ccc1Cl [Example 75, N-(5-Chlorobenzoxazol-2-yl)-(2-chloro-5-nitrophenyl)carboxamide] | 88.6 |
| O=C(Nc1ncc(Br)cn1)c1cc([N+](=O)[O-])ccc1Cl [Example 77, N-(5-Bromopyrimidin-2-yl)-(2-chloro-5-nitrophenyl)carboxamide] | 68 |
| CS(=O)(=O)Nc1ccc(-c2ccc(NC(=O)c3cc([N+](=O)[O-])ccc3Cl)cc2)cc1 [Example 93, N-[4-[4-(Methanesulfonylamino)phenyl]phenyl]-(2-chloro-5-nitrophenyl)carboxamide] | 62.9 |
| Cc1ccc(S(=O)(=O)Nc2ccc(-c3ccc(NC(=O)c4cc([N+](=O)[O-])ccc4Cl)cc3)cc2)cc1 [Example 94, N-[4-[4-(4-Toluenesulfonylamino)phenyl]phenyl]-(2-chloro-5-nitrophenyl)carboxamide] | 68.8 |
| CC(=O)Nc1ccc(-c2ccc(NC(=O)c3cc([N+](=O)[O-])ccc3Cl)cc2)cc1 [Example 118, N-[4-(4-Acetylaminophenyl)phenyl]-(2-chloro-5-nitrophenyl)carboxamide] | 53.6 |
| O=C(Nc1ccc(-c2ccc(NC(=O)c3cc([N+](=O)[O-])ccc3Cl)cc2)cc1)c1ccccc1 [Example 120, N-[4-(4-Benzoylaminophenyl)phenyl]-(2-chloro-5-nitrophenyl)carboxamide] | 79.8 |
| O=C(Nc1ccc(-c2ccc(NC(=O)c3cc([N+](=O)[O-])ccc3Cl)cc2)cc1)c1cccnc1 [Example 124, N-[4-[4-(Pyridin-3-ylcarbonylamino)phenyl]phenyl]-(2-chloro-5-nitrophenyl)carboxamide] | 84.2 |
| O=C(Nc1ccc(-c2ccc(NC(=O)c3cc([N+](=O)[O-])ccc3Cl)cc2)cc1)c1ccncc1 [Example 126, N-[4-[4-(Pyridin-4-ylcarbonylamino)phenyl]phenyl]-(2-chloro-5-nitrophenyl)carboxamide] | 75.2 |
| CCS(=O)(=O)Nc1ccc(-c2ccc(NC(=O)c3cc([N+](=O)[O-])ccc3Cl)cc2)cc1 [Example 130, N-[4-(4-Ethanesulfonylaminophenyl)phenyl]-(2-chloro-5-nitrophenyl)carboxamide] | 64 |
| CC(=O)c1ccc(NC(=O)c2cc([N+](=O)[O-])ccc2Cl)cc1 [Example 155, N-(4-Acetylphenyl)-(2-chloro-5-nitrophenyl)carboxamide] | 82.7 |
| O=C(Nc1ccc(-n2ccnc2)cc1)c1cc([N+](=O)[O-])ccc1Cl [Example 174, N-[4-(Imidazol-1-yl)phenyl]-(2-chloro-5-nitrophenyl)carboxamide] | 68.8 |
| O=C(Nc1ccc(-c2ccc(N3CCCCC3)cc2)cc1)c1cc([N+](=O)[O-])ccc1Cl [Example 177, N-[4-[4-(Piperidin-1-yl)phenyl]phenyl]-(2-chloro-5-nitrophenyl)carboxamide] | 14 |

tested on: TNF-α production; experiment: Inhibitory activity against cytokine (TNF-α) production in LPS-stimulated RAW264.7 cells; format: cell-based, mouse; conditions: 1 μM test compound, LPS 10 ng/mL, 15 hr
Method in brief: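 Mouse RAW264.7 macrophages (5,000 cells/well) stimulated with 10 ng/mL LPS (final) and treated with test compound at 1 μM final for 15 h at 37 °C. Supernatant mouse TNF-α measured by ELISA; % inhibition = 100−(A−B)/(C−B)×100, using unstimulated and LPS-only controls.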

| Compound | Inhibitory Activity (%) against TNF-α production [%] |
| --- | --- |
| Cc1ccc(S(=O)(=O)Nc2ccc(NC(=O)c3cc([N+](=O)[O-])ccc3Cl)cc2)cc1 [Example 32, N-[4-(4-Methylbenzene)sulfonylaminophenyl]-(2-chloro-5-nitrophenyl)carboxamide] | 19.8 |
| Cc1ccc2nc(NC(=O)c3cc([N+](=O)[O-])ccc3Cl)sc2c1 [Example 141, N-(6-Methybenzothiazol-2-yl)-(2-chloro-5-nitrophenyl)carboxamide] | 15.9 |

same assay, conditions: Mus musculus, 1 μM test compound, LPS 10 ng/mL, 15 hr

| Compound | inhibition at 1 µM [%] |
| --- | --- |
| O=C(Nc1ccc(-c2ccc([N+](=O)[O-])cc2)cc1)c1cc([N+](=O)[O-])ccc1Cl [Example 9, N-[4-(4-Nitrophenyl)phenyl)-(2-chloro-5-nitrophenyl)carboxamide] | 34 |
| O=C(Nc1ccc([N+](=O)[O-])cc1)c1cc([N+](=O)[O-])ccc1Cl [Example 23, N-(4-Nitrophenyl)-(2-chloro-5-nitrophenyl)carboxamide] | 24.4 |
| O=C(Nc1ccc([N+](=O)[O-])cn1)c1cc([N+](=O)[O-])ccc1Cl [Example 24, N-(5-Nitropyridin-2-yl)-(2-chloro-5-nitrophenyl)carboxamide] | 30.1 |
| O=C(Nc1nc2ccc([N+](=O)[O-])cc2s1)c1cc([N+](=O)[O-])ccc1Cl [Example 34, N-(6-Nitrobenzothiazol-2-yl)-(2-chloro-5-nitrophenyl)carboxamide] | 15.2 |
| O=C(Nc1nc(-c2ccc([N+](=O)[O-])cc2)cs1)c1cc([N+](=O)[O-])ccc1Cl [Example 246, N-[4-(4-Nitrophenyl)thiazol-2-yl]-(2-chloro-5-nitrophenyl)carboxamide] | 18 |

same assay, conditions: Mus musculus, RAW264.7, 15 h, 1 μM test compound, LPS 10 ng/mL

| Compound | inhibition at 1 µM [%] |
| --- | --- |
| O=C(Nc1ccc(OC(F)(F)F)cc1)c1cc([N+](=O)[O-])ccc1Cl [Example 18, N-(4-Trifluoromethyloxyphenyl)-(2-chloro-5-nitrophenyl)carboxamide] | 16.8 |
| O=C(Nc1nc(-c2cccs2)cs1)c1cc([N+](=O)[O-])ccc1Cl [Example 36, N-[4-(2-Thienyl)thiazol-2-yl)-(2-chloro-5-nitrophenyl)carboxamide] | 18 |
| O=C(Nc1nc(-c2ccc3ccccc3c2)cs1)c1cc([N+](=O)[O-])ccc1Cl [Example 42, N-[4-(2-Naphthyl)thiazol-2-yl)-(2-chloro-5-nitrophenyl)carboxamide] | 18.8 |
| O=C(Nc1nc(-c2ccc(Cl)c(Cl)c2)cs1)c1cc([N+](=O)[O-])ccc1Cl [Example 43, N-[4-(3,4-Dichlorophenyl)thiazol-2-yl]-(2-chloro-5-nitrophenyl)carboxamide] | 17.7 |
| O=C(Nc1cnc2ccccc2c1)c1cc([N+](=O)[O-])ccc1Cl [Example 55, N-(3-Quinolinyl)-(2-chloro-5-nitrophenyl)carboxamide] | 15.3 |
| O=C(Nc1ccc(Cl)nc1)c1cc([N+](=O)[O-])ccc1Cl [Example 62, N-(6-Chloropyridin-3-yl)-(2-chloro-5-nitrophenyl)carboxamide] | 20.5 |
| Nc1ccc(-c2ccc(NC(=O)c3cc([N+](=O)[O-])ccc3Cl)cc2)cc1 [Example 88, N-[4-(4-Aminophenyl)phenyl]-(2-chloro-5-nitrophenyl)carboxamide mono-hydrochloride] | 28 |
| CS(=O)(=O)Nc1ccc(-c2ccc(NC(=O)c3cc([N+](=O)[O-])ccc3Cl)cc2)cc1 [Example 93, N-[4-[4-(Methanesulfonylamino)phenyl]phenyl]-(2-chloro-5-nitrophenyl)carboxamide] | 15.6 |
| Cc1ccc(S(=O)(=O)Nc2ccc(-c3ccc(NC(=O)c4cc([N+](=O)[O-])ccc4Cl)cc3)cc2)cc1 [Example 94, N-[4-[4-(4-Toluenesulfonylamino)phenyl]phenyl]-(2-chloro-5-nitrophenyl)carboxamide] | 34.8 |
| O=C(Nc1ccc(N2CCCCC2)cc1)c1cc([N+](=O)[O-])ccc1Cl [Example 114, N-[4-(Piperidin-1-yl)phenyl]-(2-chloro-5-nitrophenyl)carboxamide] | 16.8 |
| CC(=O)Nc1ccc(-c2ccc(NC(=O)c3cc([N+](=O)[O-])ccc3Cl)cc2)cc1 [Example 118, N-[4-(4-Acetylaminophenyl)phenyl]-(2-chloro-5-nitrophenyl)carboxamide] | 16.4 |
| CCc1ccc(S(=O)(=O)Nc2ccc(NC(=O)c3cc([N+](=O)[O-])ccc3Cl)cc2)cc1 [Example 150, N-[4-(4-Ethylbenzenesulfonylamino)phenyl]-(2-chloro-5-nitrophenyl)carboxamide] | 16.2 |
| CC(C)(C)c1cc(NS(=O)(=O)c2ccc(NC(=O)c3cc([N+](=O)[O-])ccc3Cl)cc2)cc(C(C)(C)C)c1O [Example 175, N-[4-[(3,5-di-tert-Butyl-4-hydroxyphenyl)aminosulfonyl]phenyl]-(2-chloro-5-nitrophenyl)carboxamide] | 15.7 |
| CCCN(CCC)c1ccc(NC(=O)c2cc([N+](=O)[O-])ccc2Cl)cc1 [Example 182, N-[4-(N,N-Dipropylamino)phenyl]-(2-chloro-5-nitrophenyl)carboxamide] | 32.8 |
| CCCCCCN(CC)c1ccc(NC(=O)c2cc([N+](=O)[O-])ccc2Cl)cc1 [Example 188, N-[4-(N-Ethyl-N-hexylamino)phenyl]-(2-chloro-55 nitrophenyl)carboxamide] | 24.2 |
